From ChEMBL document CHEMBL5727087, “Inhibitors of lysine gingipain” (2018)

Assay: Inhibition Assay: The specific assay conditions were as follows. Buffer: pH=7.5, 100 mM Tris-HCl, 75 mM NaCl, 2.5 mM CaCl2, 10 mM cysteine, 1% DMSO after all additions. Protein: 0.1 nM Kgp, isolated from culture of Porphyromonas gingivalis, as described in Pike et al. J. Biol. Chem. 1994, 269(1), 406, and Potempa and Nguyen. Current Protocols in Protein Scienc. 2007, 21.20.1-21.20.27. Fluorogenic substrate: 10 uM Z-His-Glu-Lys-MCA. Time=90 minutes. Temperature=37° C. Each compound: 10 concentrations, starting at either 100 uM or 100 nM, with lower concentrations generated by serial 3-fold dilutions. By testing a range of concentrations for each compound, the concentration required to inhibit the activity of lysine gingipain by 50% (the “IC50”) was determined. Under the described assay conditions, signal-to-noise was excellent, and Z factor was greater than 0.6.

NCCCC[C@H](NC(=O)C1CCCC1)C(=O)COc1c(F)c(F)cc(F)c1F gave an IC50 of less than 1 nM.
